From ChEMBL document CHEMBL4831510, “Novel cannabidiol-carbamate hybrids as selective BuChE inhibitors: Docking-based fragment reassembly for the development of potential therapeutic agents against Alzheimer's disease” (Eur J Med Chem, 2021)
Calls of active or inactive are those of the source. No cut-off for these calls is given here.

Columns and labels:
[1] = Permeability of the compound at 100 ug/ml incubated for 18 hrs by PAMPA; assay type: ADME; settings: dose 100 µg/ml, read-out: permeability
[2] = tested on: PC-12; assay: Neuroprotective activity against H2O2-induced cytotoxicity in rat PC-12 cells assessed as cell viability at 25 uM pretreated for 3 hrs followed by H2O2 stimulation and measured after 24 hrs by MTT assay (reference value: 38.7%); assay type: functional; settings: time 27 hrs, read-out: Activity
[3] = Cytotoxicity against human HepG2 cells assessed as cell viability at 25 uM incubated for 24 hrs by MTT assay; assay type: cell-based; settings: read-out: Activity
[4] = Antioxidant activity assessed as DPPH radical scavenging activity at 100 uM incubated for 2 hrs by microplate reader method; assay type: functional
[5] = target: T1, Cholinesterase (Equus caballus, UniProt P81908)
Description: Inhibition of equine serum BuChE using butyrylthiocholine iodide as substrate preincubated with enzyme for 20 mins followed by substrate addition and measured after 20 mins by Ellman's method

[6] = n-Octanol/PBS partition coefficient, logP of the compound incubated for 48 hrs at pH 7.4 by shake flask method; assay type: physicochemical
[7] = Cytotoxicity against human L02 cells assessed as cell viability at 50 uM incubated for 24 hrs by MTT assay; assay type: cell-based; settings: read-out: Activity
[8] = target: Acetylcholinesterase (Electrophorus electricus, UniProt O42275); assay: Inhibition of electric eel AChE using acetylthiocholine iodide as substrate preincubated with enzyme for 20 mins followed by substrate addition and measured after 20 mins by Ellman's method
[9] = target: Acetylcholinesterase (Electrophorus electricus) (UniProt O42275); assay: Inhibition of electric eel AChE using acetylthiocholine iodide as substrate at 20 uM preincubated with enzyme for 20 mins followed by substrate addition and measured after 20 mins by Ellman's method; settings: time 40.0 min
[10] = target: Acetylcholinesterase (Homo sapiens, UniProt P22303); assay: Inhibition of human AChE using acetylthiocholine iodide as substrate at 20 uM preincubated with enzyme for 5 mins followed by substrate addition and measured after 5 mins by Ellman's method; settings: time 10.0 min
[11] = target: Cholinesterase (Homo sapiens, UniProt P06276)
Description: Inhibition of human serum BuChE using butyrylthiocholine iodide as substrate preincubated with enzyme for 5 mins followed by substrate addition and measured after 5 mins by Ellman's method

[12] = tested on: Mus musculus; assay: Anti-alzheimer activity against oligomerized-amyloid beta (1 to 42) peptide-induced cognitive dysfunction ICR mouse model assessed as reduction in amyloid beta (1 to 42) peptide level in brain at 5 mg/kg, po administered from day 3 to 14 by ELISA; assay type: functional; settings: 288 h, time 12 day
[13] = Hepatotoxicity in ICR mouse assessed as effect on AST level in serum at 30 mg/kg, ig measured after 36 hrs; assay type: toxicity, organism-based; settings: in vivo, po
[14] = tested on: Mus musculus; assay: Anti-alzheimer activity against oligomerized-amyloid beta (1 to 42) peptide-induced cognitive dysfunction ICR mouse model assessed as increase in neuronal density at CA1 region of hippocampus at 5 mg/kg, po administered from day 3 to 14 by Hematoxylin-Eosin staining based microscopic analysis; assay type: functional, organism-based; settings: time 12.0 day
[15] = tested on: Mus musculus; assay: Anti-alzheimer activity against scopolamine-induced cognitive dysfunction mouse model assessed as increase in swimming time in the target quadrant crossing at 20 mg/kg, ip measured after 60 mins by Morris water maze test; assay type: functional, organism-based
[16] = target: T1, Cholinesterase; assay: Pseudo-irreversible inhibition of equine serum BuChE assessed as binding affinity in an equilibrium state using butyrylthiocholine iodide as substrate preincubated with enzyme for 60 mins prior to substrate addition; assay type: cell-free
[17] = Acute toxicity in ICR mouse assessed as effect on body weight at 1 g/kg, ig measured for 14 days; settings: in vivo, po, 1000 mg/kg, 336 h, time 14 day
[18] = tested on: Mus musculus; assay: Anti-alzheimer activity against oligomerized-amyloid beta (1 to 42) peptide-induced cognitive dysfunction ICR mouse model assessed as simplification of trajectories to the platform at 5 mg/kg, po administered from day 3 to 14 by Morris water maze test; assay type: functional, organism-based; settings: time 12.0 day
[19] = tested on: Mus musculus; assay: Anti-alzheimer activity against oligomerized-amyloid beta (1 to 42) peptide-induced cognitive dysfunction ICR mouse model assessed as improvement in alteration performance at 5 mg/kg, po administered from day 3 to 14 by […]; assay type: functional, organism-based; settings: time 12.0 day
[20] = Acute toxicity in ICR mouse assessed as behavioral changes at 1 g/kg, ig measured for 7 days; settings: in vivo, po, 1000 mg/kg, 168 h, time 7 day
[21] = tested on: Mus musculus; assay: Anti-alzheimer activity against scopolamine-induced cognitive dysfunction mouse model assessed as increase in number of platform crossing at 20 mg/kg, ip measured after 60 mins by Morris water maze test; assay type: functional, organism-based
[22] = Hepatotoxicity in ICR mouse assessed as distinct fatty degeneration of hepatocytes of the surrounding intermediate and peripheral zones in liver at 30 mg/kg, ig measured after 36 hrs by immunohistochemical staining based analysis; assay type: toxicity, organism-based; settings: in vivo, po
[23] = tested on: Mus musculus; assay: Anti-alzheimer activity against scopolamine-induced cognitive dysfunction mouse model assessed as reduction in escape time latency at 20 mg/kg, ip measured after 60 mins by Morris water maze test; assay type: functional, organism-based
[24] = tested on: Mus musculus; assay: Anti-alzheimer activity against oligomerized-amyloid beta (1 to 42) peptide-induced cognitive dysfunction ICR mouse model assessed as reduction in escape latency time at 5 mg/kg, po administered from day 3 to 14 by Morris water maze test; assay type: functional, organism-based; settings: time 12.0 day
[25] = Hepatotoxicity in ICR mouse assessed as pericentral necrosis in liver at 30 mg/kg, ig measured after 36 hrs by immunohistochemical staining based analysis; assay type: toxicity, organism-based; settings: in vivo, po
[26] = Cytotoxicity against human HepG2 cells assessed as cell viability at 50 uM incubated for 24 hrs by MTT assay; assay type: cell-based; settings: read-out: Activity
[27] = Acute toxicity in ICR mouse assessed as animal death at 1 g/kg, ig measured for 7 days; settings: in vivo, po, 1000 mg/kg, 168 h, time 7 day
[28] = target: Cholinesterase (Equus caballus) (UniProt P81908); assay: Pseudo-irreversible inhibition of equine serum BuChE assessed as overall carbamolyation-rate using butyrylthiocholine iodide as substrate preincubated with enzyme for 60 mins prior to substrate addition; assay type: cell-free
[29] = Hepatotoxicity in ICR mouse assessed as effect on ALT level in serum at 30 mg/kg, ig measured after 36 hrs; assay type: toxicity, organism-based; settings: in vivo, po
[30] = target: Cholinesterase (Equus caballus) (UniProt P81908); assay: Pseudo-irreversible inhibition of equine serum BuChE assessed as carbamolyation-rate using butyrylthiocholine iodide as substrate preincubated with enzyme for 60 mins prior to substrate addition; assay type: cell-free
[31] = tested on: PC-12; assay: Neuroprotective activity against H2O2-induced cytotoxicity in rat PC-12 cells assessed as increase in cell viability pretreated for 3 hrs followed by H2O2 stimulation and measured after 24 hrs by MTT assay; assay type: functional, cell-based; settings: time 27.0 hrs
[32] = target: Cholinesterase (Equus caballus) (UniProt P81908); assay: Pseudo-irreversible inhibition of equine serum BuChE assessed as decarbamolyation-rate using butyrylthiocholine iodide as substrate preincubated with enzyme for 60 mins prior to substrate addition; assay type: cell-free
[33] = tested on: Mus musculus; assay: Anti-alzheimer activity against oligomerized-amyloid beta (1 to 42) peptide-induced cognitive dysfunction ICR mouse model assessed as simplification of trajectories to the platform at 15 mg/kg, po administered from day 3 to 14 by Morris water maze test; assay type: functional, organism-based; settings: time 12.0 day
[34] = tested on: Mus musculus; assay: Anti-alzheimer activity against scopolamine-induced cognitive dysfunction mouse model assessed as increase in swimming time in the target quadrant crossing at 10 mg/kg, ip measured after 60 mins by Morris water maze test; assay type: functional, organism-based
[35] = tested on: Mus musculus; assay: Anti-alzheimer activity against oligomerized-amyloid beta (1 to 42) peptide-induced cognitive dysfunction ICR mouse model assessed as reduction in escape latency time at 15 mg/kg, po administered from day 3 to 14 by Morris water maze test; assay type: functional, organism-based; settings: time 12.0 day
[36] = tested on: Mus musculus; assay: Anti-alzheimer activity against scopolamine-induced cognitive dysfunction mouse model assessed as increase in number of platform crossing at 10 mg/kg, ip measured after 60 mins by Morris water maze test; assay type: functional, organism-based
[37] = tested on: Mus musculus; assay: Anti-alzheimer activity against scopolamine-induced cognitive dysfunction mouse model assessed as reduction in escape time latency at 10 mg/kg, ip measured after 60 mins by Morris water maze test; assay type: functional, organism-based
[38] = tested on: Mus musculus; assay: Anti-alzheimer activity against oligomerized-amyloid beta (1 to 42) peptide-induced cognitive dysfunction ICR mouse model assessed as improvement in alteration performance at 15 mg/kg, po administered from day 3 to 14 by […]; assay type: functional, organism-based; settings: time 12.0 day
[39] = organism: Mus musculus; assay: animal or person; settings: ICR, po, 288 h, read-out: INH
Description: Anti-alzheimer activity against oligomerized-amyloid beta (1 to 42) peptide-induced cognitive dysfunction ICR mouse model assessed as reduction in amyloid beta (1 to 42) peptide level in brain at 15 mg/kg, po administered from day 3 to 14 by ELISA

Chain of Acetylcholinesterase (Electrophorus electricus, UniProt O42275) (O42275 whole entry): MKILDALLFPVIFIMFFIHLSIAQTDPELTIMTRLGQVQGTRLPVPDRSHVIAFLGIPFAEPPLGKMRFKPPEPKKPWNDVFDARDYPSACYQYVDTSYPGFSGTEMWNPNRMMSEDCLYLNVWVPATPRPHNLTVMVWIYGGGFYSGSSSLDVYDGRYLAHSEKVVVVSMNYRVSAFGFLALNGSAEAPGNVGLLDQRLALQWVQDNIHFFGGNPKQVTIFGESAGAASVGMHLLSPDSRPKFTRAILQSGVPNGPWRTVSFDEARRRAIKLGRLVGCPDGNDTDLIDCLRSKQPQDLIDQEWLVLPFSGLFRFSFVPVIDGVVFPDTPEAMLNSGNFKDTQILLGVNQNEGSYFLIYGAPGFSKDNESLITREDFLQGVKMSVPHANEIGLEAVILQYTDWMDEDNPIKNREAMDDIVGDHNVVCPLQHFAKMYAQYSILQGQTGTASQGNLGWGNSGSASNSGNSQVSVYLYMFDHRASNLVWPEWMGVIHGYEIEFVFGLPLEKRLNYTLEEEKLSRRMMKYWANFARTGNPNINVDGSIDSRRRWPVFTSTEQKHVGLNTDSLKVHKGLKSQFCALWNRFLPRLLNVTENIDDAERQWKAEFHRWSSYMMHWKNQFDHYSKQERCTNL
Chain of Acetylcholinesterase (Electrophorus electricus) (O42275 24-633 limits assumed): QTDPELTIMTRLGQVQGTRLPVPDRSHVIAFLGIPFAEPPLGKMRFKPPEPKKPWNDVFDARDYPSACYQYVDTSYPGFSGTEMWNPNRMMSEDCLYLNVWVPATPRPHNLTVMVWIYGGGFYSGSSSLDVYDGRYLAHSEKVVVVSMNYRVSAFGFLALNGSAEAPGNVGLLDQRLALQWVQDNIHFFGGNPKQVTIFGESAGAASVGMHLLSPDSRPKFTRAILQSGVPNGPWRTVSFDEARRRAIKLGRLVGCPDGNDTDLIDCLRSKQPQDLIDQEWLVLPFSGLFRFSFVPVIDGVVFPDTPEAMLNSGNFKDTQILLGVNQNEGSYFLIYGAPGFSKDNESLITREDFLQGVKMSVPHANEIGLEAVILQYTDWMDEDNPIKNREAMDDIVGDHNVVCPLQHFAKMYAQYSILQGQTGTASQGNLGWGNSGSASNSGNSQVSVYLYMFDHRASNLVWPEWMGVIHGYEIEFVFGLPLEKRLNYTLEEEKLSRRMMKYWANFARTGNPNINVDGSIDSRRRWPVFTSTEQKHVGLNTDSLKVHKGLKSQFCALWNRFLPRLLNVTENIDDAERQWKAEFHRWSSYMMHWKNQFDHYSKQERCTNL
Chain of Cholinesterase (Equus caballus) (P81908 whole entry): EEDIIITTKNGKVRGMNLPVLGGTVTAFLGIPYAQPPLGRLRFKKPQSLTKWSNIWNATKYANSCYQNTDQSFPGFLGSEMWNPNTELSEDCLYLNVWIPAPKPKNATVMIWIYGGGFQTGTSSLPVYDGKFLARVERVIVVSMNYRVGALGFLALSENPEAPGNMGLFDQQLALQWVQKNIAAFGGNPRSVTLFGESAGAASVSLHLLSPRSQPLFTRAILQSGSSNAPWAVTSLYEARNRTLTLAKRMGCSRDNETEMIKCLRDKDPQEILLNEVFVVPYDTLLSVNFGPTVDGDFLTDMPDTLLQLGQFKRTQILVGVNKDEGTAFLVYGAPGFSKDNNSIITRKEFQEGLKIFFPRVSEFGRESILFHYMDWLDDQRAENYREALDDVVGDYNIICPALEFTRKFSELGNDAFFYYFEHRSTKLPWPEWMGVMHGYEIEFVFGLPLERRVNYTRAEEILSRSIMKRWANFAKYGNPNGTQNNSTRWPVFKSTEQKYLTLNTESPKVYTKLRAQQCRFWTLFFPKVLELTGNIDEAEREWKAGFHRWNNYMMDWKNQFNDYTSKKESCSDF
T1 sequence (P81908 whole entry): as above
Chain of Acetylcholinesterase (Homo sapiens, UniProt P22303) (P22303 whole entry): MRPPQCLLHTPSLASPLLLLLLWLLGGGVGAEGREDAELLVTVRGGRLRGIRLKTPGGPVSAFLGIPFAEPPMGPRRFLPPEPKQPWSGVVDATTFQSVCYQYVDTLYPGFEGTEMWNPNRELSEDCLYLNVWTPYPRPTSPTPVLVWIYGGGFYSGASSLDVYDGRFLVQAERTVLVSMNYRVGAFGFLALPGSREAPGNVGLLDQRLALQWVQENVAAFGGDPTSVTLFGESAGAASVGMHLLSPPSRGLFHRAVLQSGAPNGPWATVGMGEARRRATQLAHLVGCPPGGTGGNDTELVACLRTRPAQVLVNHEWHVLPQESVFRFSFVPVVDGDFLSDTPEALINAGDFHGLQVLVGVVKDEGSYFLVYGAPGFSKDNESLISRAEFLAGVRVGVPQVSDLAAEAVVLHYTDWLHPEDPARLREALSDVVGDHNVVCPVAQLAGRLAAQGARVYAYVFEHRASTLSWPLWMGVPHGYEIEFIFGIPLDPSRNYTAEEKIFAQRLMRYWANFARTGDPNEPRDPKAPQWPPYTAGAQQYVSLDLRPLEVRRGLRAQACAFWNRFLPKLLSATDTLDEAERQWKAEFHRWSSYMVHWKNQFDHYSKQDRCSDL
Chain of Cholinesterase (Homo sapiens, UniProt P06276) (P06276 whole entry): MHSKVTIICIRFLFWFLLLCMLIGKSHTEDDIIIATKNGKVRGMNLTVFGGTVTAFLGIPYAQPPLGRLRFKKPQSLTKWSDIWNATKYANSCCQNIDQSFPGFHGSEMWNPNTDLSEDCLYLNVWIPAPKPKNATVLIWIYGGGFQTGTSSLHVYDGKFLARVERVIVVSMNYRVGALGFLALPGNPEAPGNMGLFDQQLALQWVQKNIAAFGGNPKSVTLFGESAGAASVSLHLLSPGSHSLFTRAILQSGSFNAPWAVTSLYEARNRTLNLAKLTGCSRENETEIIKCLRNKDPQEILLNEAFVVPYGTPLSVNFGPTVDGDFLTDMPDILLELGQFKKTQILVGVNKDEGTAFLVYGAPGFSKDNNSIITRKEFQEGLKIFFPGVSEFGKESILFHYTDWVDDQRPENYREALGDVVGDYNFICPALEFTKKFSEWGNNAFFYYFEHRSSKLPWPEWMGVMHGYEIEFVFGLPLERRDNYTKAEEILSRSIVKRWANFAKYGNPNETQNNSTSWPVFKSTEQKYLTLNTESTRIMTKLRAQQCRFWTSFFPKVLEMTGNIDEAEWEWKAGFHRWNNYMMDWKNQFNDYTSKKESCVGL

`C=C(C)[C@@H]1CCC(C)=C[C@H]1c1c(O)cc(CCCCC)cc1O` [CANNABIDIOL] gave a Papp at 18 h, 100 ug/ml [1] of 22.7 ×10⁻⁶ cm/s, a viability at 25 µM [2] of 17.9% and a viability at 24 h, 25 µM [3] of 20.1%. It also gave an inhibition [4] of 66.7%, an IC50 [5] of 670 nM and a logD at 48 h [6] of 1.67. For the same compound, the viability at 24 h, 50 µM [7] was 92.6% and the IC50 ([8]; read-out: IC50) was 17100 nM.

In the case of `C=C(C)[C@@H]1CCC(C)=C[C@H]1c1c(O)cc(CCCCC)cc1OC(=O)N(C)Cc1cccc(Cl)c1`, the inhibition [4] is reported as “inactive”, the IC50 [5] is reported as 2820 nM and the IC50 [8] is reported as “Not Active”.

With `C=C(C)[C@@H]1CCC(C)=C[C@H]1c1c(O)cc(CCCCC)cc1OC(=O)N1CCCCC1` the inhibition [4] was 46.8%, the inhibition [9] was 30.5% and the IC50 [5] was 530 nM.

In the case of `C=C(C)[C@@H]1CCC(C)=C[C@H]1c1c(O)cc(CCCCC)cc1OC(=O)N(C)CC`, the Papp at 18 h, 100 ug/ml [1] is reported as 18.8 ×10⁻⁶ cm/s, the inhibition [4] is reported as 31.1% and the inhibition [10] is reported as 13.2%. The IC50 [11] was 1510 nM, the IC50 [5] was 77 nM and the logD at 48 h [6] was 1.92. For the same compound, the IC50 ([8]; read-out: IC50) was 15000 nM.

For `C=C(C)[C@@H]1CCC(C)=C[C@H]1c1c(O)cc(CCCCC)cc1OC(=O)N(C)Cc1cccc(F)c1`, the inhibition [4] was “inactive”, the IC50 [5] was 4870 nM and the IC50 [8] was “Not Active”.

In the case of `C=C(C)[C@@H]1CCC(C)=C[C@H]1c1c(O)cc(CCCCC)cc1OC(=O)N(C)Cc1ccc(Cl)cc1`, the Papp at 18 h, 100 ug/ml [1] is reported as 12.9 ×10⁻⁶ cm/s, the inhibition in vivo at 5 mg/kg [12] is reported as 31.6% and the Activity [13] is reported as “Non-Toxic”. The Activity [14] was “Active”, the Activity [15] was “Active” and the Kd [16] was 13 nM. The viability at 25 µM [2] was 41.9%, the Activity [17] was “Non-Toxic” and the Activity [18] was “Active”. The Activity [19] was “Active”, the Activity [20] was “Non-Toxic” and the Activity [21] was “Active”. The Activity [22] was “Non-Toxic”, the Activity [23] was “Active” and the Activity [24] was “Active”. The Activity [25] was “Non-Toxic”, the viability at 24 h, 50 µM [26] was 88.3% and the inhibition [4] was 27.1%. For the same compound, the Activity [27] was “Non-Toxic”, the inhibition [10] was 26.3% and the K [28] was 20.3 µM/min. For the same compound, the Activity [29] was “Non-Toxic”, the inhibition [9] was 21.4% and the IC50 [11] was 1770 nM. For the same compound, the K [30] was 0.26 min⁻¹, the IC50 [5] was 5.3 nM and the Activity [31] was “Dose-Dependent Effect”. The logD at 48 h [6] was 2.38, the K [32] was 5.2 10^3/min and the viability at 24 h, 50 µM [7] was 96%.

In the case of `COc1cc2c(cc1OC)C(=O)C(CC1CCN(Cc3ccccc3)CC1)C2` (configuration not stated) [DONEPEZIL], the Activity [33] is reported as “Active”, the Activity [34] is reported as “Active” and the Activity [35] is reported as “Active”. For the same compound, the Activity [36] was “Active”, the Activity [37] was “Active” and the viability at 24 h, 50 µM [26] was 91.1%. The inhibition [4] was 1.3%, the Activity [38] was “Active” and the inhibition in vivo at 15 mg/kg [39] was 19%.

For `C=C(C)[C@@H]1CCC(C)=C[C@H]1c1c(OC(=O)N2CCCC2)cc(CCCCC)cc1OC(=O)N1CCCC1`, the inhibition [4] was 17.8%, the IC50 [5] was 530 nM and the IC50 [8] was “Not Active”.

`C=C(C)[C@@H]1CCC(C)=C[C@H]1c1c(O)cc(CCCCC)cc1OC(=O)N(C)C` gave an inhibition [4] of 27.1%, an inhibition [9] of 36.1% and an IC50 [5] of 200 nM.

In the case of `C=C(C)[C@@H]1CCC(C)=C[C@H]1c1c(O)cc(CCCCC)cc1OC(=O)N(C)Cc1cccc(Br)c1`, the inhibition [4] is reported as “inactive”, the IC50 [5] is reported as 2400 nM and the IC50 [8] is reported as “Not Active”.
